Results: patent US20090081318A1, “TREATMENT OF NEUROADS USING INHIBITORS OF GLYCOGEN SYNTHASE KINASE (GSK)-3” (priority 2005, published 2009)
Several values for one entry are separate records, joined by “and”; a condition that tells them apart may be missing. Equal entries are not always repeated.

Key:
[1] = tested on: subjects with HIV-associated cognitive impairment; assay: Neuropsychological evaluations, VPA adjunctive therapy trial; format: in vivo, human
Method: (§1) Twenty-two eligible subjects, six without cognitive impairment and 16 with cognitive impairment, were enrolled and block-randomized within impairment strata to receive 250 mg of VPA or placebo twice daily. Cognitive impairment was defined as performance at least one standard deviation below the mean on two or more neuropsychological tests, or at least two standard deviations below the mean on one neuropsychological test, using normative data previously applied by the Dana cohort (Dana 1996). Subjects were evaluated at 2, 6, and 10 weeks for adverse clinical and laboratory experiences. Neuropsychological evaluations (see Table 3) were performed at screening, week 6, and week 10 along with global assessments of functioning (subject and investigator), the Fatigue Severity Scale, and the Center for Epidemiologic Studies Depression Scale. A neurological examination and CD4+/CD8+ counts were performed at screening and week 10, while plasma HIV viral load was measured at baseline and week 10.
(§2) Tolerability was assessed based on the proportion of subjects able to complete the 10-week study at the original dose of study medication. Safety measures included the occurrences of adverse events and abnormal results on laboratory tests. Measures of efficacy included changes from baseline in: neuropsychological test scores; the Investigator Clinical Global Impression; MRI indices; functioning; and mood. The study was designed to provide approximately 80% power to detect a 45% difference in tolerability (i.e. 95% versus 50%) between the placebo and VPA groups using a one-sided Fisher's exact test at the 5% level of significance.
Changes from baseline were assessed using paired t-tests. Comparisons between treatment arms were based on unequal-variance two-sample t-tests for continuous variables, and Fisher's Exact Tests for categorical variables. Comparisons between treatment arms were adjusted for baseline values using Analysis of Covariance. Primary statistical analyses were performed according to the intention-to-treat principle, using the last-observation-carried-forward imputation strategy for subjects who prematurely dropped out of the study. Secondary analyses excluded such subjects.

HIV = assay: Plasma HIV viral load; format: in vivo; conditions: individual subjects on VPA (three subjects; the first changed antiretroviral therapy); listed as VPA
Method: as §1

[2] = tested on: subjects with HIV-associated cognitive impairment; assay: Investigator Clinical Global Impression; conditions: human, in vivo
Method: as §2

[3] = set-up: species or system human; conditions: in vivo
Method: as §1
Tolerability was assessed based on the proportion of subjects able to complete the 10-week study at the original dose of study medication. Safety measures included the occurrences of adverse events and abnormal results on laboratory tests. […]

GSK-3 [4] = conditions: acting primarily through beta3-adrenoreceptors; similar extent as insulin; Moule et al. 1997; cited from earlier work
CDK1 = CDK1 (Homo sapiens, UniProt P06493); conditions: cited from earlier work
GSK-3 [5] = conditions: cited from earlier work
[6] = impaired participants, n = 9, VPA 250 mg twice daily
[7] = impaired participants, valproic acid minus placebo mean change to week 10, adjusted for baseline, negative = better on valproic acid
[8] = impaired participants, valproic acid minus placebo mean change to week 10, adjusted for baseline, positive = better on valproic acid

Chain of CDK1 (P06493 whole entry, species assumed): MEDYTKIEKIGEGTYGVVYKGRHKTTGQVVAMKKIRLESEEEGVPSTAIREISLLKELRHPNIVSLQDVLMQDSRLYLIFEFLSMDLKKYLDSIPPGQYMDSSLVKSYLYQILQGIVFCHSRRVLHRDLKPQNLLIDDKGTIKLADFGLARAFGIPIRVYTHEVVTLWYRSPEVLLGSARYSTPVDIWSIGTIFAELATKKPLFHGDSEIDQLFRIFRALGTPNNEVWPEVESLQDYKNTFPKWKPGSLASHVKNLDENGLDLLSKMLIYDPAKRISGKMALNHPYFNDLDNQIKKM
Chain of CDK1 (P14635 whole entry partner, species assumed): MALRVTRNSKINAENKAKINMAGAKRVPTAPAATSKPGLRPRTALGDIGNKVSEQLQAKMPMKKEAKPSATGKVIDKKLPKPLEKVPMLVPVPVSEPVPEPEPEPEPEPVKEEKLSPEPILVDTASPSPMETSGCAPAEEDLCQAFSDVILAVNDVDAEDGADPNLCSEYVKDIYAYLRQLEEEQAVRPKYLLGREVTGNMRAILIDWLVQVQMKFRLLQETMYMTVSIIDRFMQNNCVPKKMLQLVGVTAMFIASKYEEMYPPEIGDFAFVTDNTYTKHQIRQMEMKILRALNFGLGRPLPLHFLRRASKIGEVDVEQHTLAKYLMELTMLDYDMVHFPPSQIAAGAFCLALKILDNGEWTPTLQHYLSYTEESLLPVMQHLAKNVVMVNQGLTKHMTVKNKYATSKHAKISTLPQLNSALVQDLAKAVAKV

## CCCC(CCC)C(=O)O [Valproic Acid, Valproic acid]
[1]; [6]
  Composite Neuropsychological Z-score, mean change from baseline to week 10: 4.56
  Digit Symbol, mean change from baseline to week 10: 6.56
  Grooved Pegboard Dominant Hand, mean change from baseline to week 10: -9.33 s
  Grooved Pegboard Nondominant Hand, mean change from baseline to week 10: -6.44 s
  Mean Reaction Time Choice, mean change from baseline to week 10: -43.38 ms
  Mean Reaction Time Sequential, mean change from baseline to week 10: -8.63 ms
  Rey Auditory Verbal Memory Correct Recognition, mean change from baseline to week 10: 0.11
  Rey Auditory Verbal Memory Delayed Recall, mean change from baseline to week 10: 1.11
  Rey Auditory Verbal Memory Recall after Interference, mean change from baseline to week 10: −0.22
  Rey Auditory Verbal Memory Trial 5, mean change from baseline to week 10: 0.78
  Timed Gait, mean change from baseline to week 10: -0.65 s
[1]; [7]
  Grooved Pegboard Dominant Hand, Treatment Effect: -10.56 s
  Grooved Pegboard Nondominant Hand, Treatment Effect: -4.53 s
  Mean Reaction Time Choice, Treatment Effect: 5.67 ms
  Mean Reaction Time Sequential, Treatment Effect: 29.08 ms
  Timed Gait, Treatment Effect: -0.25 s
[1]; [8]
  Composite Neuropsychological Z-score, Treatment Effect: 2.31
  Digit Symbol, Treatment Effect: 5.02
  Rey Auditory Verbal Memory Correct Recognition, Treatment Effect: 1.16
  Rey Auditory Verbal Memory Delayed Recall, Treatment Effect: 1.82
  Rey Auditory Verbal Memory Recall after Interference, Treatment Effect: 1.57
  Rey Auditory Verbal Memory Total, Treatment Effect: 2.22
  Rey Auditory Verbal Memory Trial 5, Treatment Effect: −0.38
[1]; impaired subjects, VPA vs placebo
  Between group differences on independent neuropsychological tests and composite z-score: not statistically significant
HIV
  Change in plasma HIV RNA from baseline to week 10: 33,300 to 316 copies/ml and 100,000 to 93,900 copies/ml and 32,500 to 24,700 copies/ml
[2]
  Investigator clinical global impression, placebo vs VPA group: No significant difference
[3]
  Adverse experience: mild new onset of acid reflux
  Increase in liver function tests: < 2.5 times the upper limit of normal

## CC(C)NCC(O)c1ccc(O)c(O)c1 (centres unmarked) [Isoproterenol]
GSK-3 [4]
  Decrease of GSK-3 activity: approximately 50%

## [Be+2] [Beryllium]
CDK1
  IC50: 50 µM
GSK-3 [5]; read-out: Inhibition potency IC50
  IC50: 6 µM

## GRPRTTS*FAE [Pseudosubstrate peptide]
GSK-3 [5]; read-out: Inhibition potency Ki
  Ki: 700 µM
